Values joined by “and” are separate entries in the source; they are usually repeats but may differ in a detail not shown here. Equal entries are not always repeated. Where two headings read alike, the source gives them in different places.
Tests used:
[1] = test system: Antrodia xantha (Brown rot); assay: Malt extract agar plate growth inhibition; assay type: cell-based
Description: (§1) The end points used were EC90 or EC50, the concentration producing 90% or 50% inhibition of growth or weight loss resulting from fungal growth. EC values were calculated by regression analysis of dose response data using the GraphPad Prism software package (GraphPad Software, Inc., 5755 Oberlin Drive #110, San Diego, Calif. 92121, USA). EC90 values are expressed in ppm and EC50 values are expressed in gai/m^3. […]

[2] = test system: Coniophora puteana (Brown rot); assay: Malt extract agar plate growth inhibition; assay type: cell-based; conditions: Example 6, 8 days growth
Description: as §1

[3] = test system: Coniophora puteana; assay: Rot jar test of glueline treated Pinus radiata plywood (AWPC 2007); conditions: Example 10, glueline rate giving 50% inhibition of weight loss, regression
Description: (§2) The end points used were EC90 or EC50, the concentration producing 90% or 50% inhibition of growth or weight loss resulting from fungal growth. EC values were calculated by regression analysis of dose response data using the GraphPad Prism software package (GraphPad Software, Inc., 5755 Oberlin Drive #110, San Diego, Calif. 92121, USA). EC90 values are expressed in ppm and EC50 values are expressed in gai/m^3.
Efficacy as a glueline fungicide was tested in plywood manufactured with phenol formaldehyde (PF), a typical resin used in engineered wood products. The wood type was Pinus radiata sapwood, which, like many softwoods, is rapidly degraded by decay organisms, if not protected. […]
(§3) In order to examine the interaction between triadimefon and cyproconazole in the glueline a synergy trial was performed using plywood manufactured with fungicide-supplemented PF resin and the rot jar method described above. Six glueline rates (expressed as gai/m^3) of triadimefon alone, cyproconazole alone, triadimefon+cyproconazole (10:1) and triadimefon+cyproconazole (6:1) were used to establish EC50 values by regression analysis. Synergy was determined by the Wadley method as described above using the EC50 values. […]

[4] = cited from earlier work
[5] = test system: Fomitopsis lilacino-gilva (Brown rot); assay: Malt extract agar plate growth inhibition; assay type: cell-based; conditions: Example 4, 5 days at 25° C.
Description: as §2
(§4) Decay fungi were grown on malt extract agar plates for 5 days at 25° C. in the presence of triadimefon alone or triadimenol alone (A), cyproconazole alone (B), and the pairs of mixtures shown in Table 2.

[6] = test system: Trametes versicolor (White rot); assay: Malt extract agar plate growth inhibition; assay type: cell-based; conditions: Example 4, 5 days at 25° C.
Description: as §2, §4

[7] = test system: Pycnoporus coccineus (White rot); assay: Malt extract agar plate growth inhibition; assay type: cell-based
Description: as §1
(§5) Further EC90 values were determined for this example in a standard manner.

[8] = test system: Gloeophyllum abietinum (Brown rot); assay: Malt extract agar plate growth inhibition; assay type: cell-based; conditions: Example 5, 7 days growth
Description: as §1, §5

[9] = test system: Serpula lacrymans (Dry rot); assay: Malt extract agar plate growth inhibition; assay type: cell-based
Description: as §1, §5

[10] = test system: Tyromyces palustris (Brown rot); assay: Malt extract agar plate growth inhibition; assay type: cell-based; conditions: Example 5, 4 days growth
Description: as §1, §5

[11] = test system: Poria placenta (Brown rot); assay: Malt extract agar plate growth inhibition; assay type: cell-based
Description: as §1, §5

[12] = test system: Fomitopsis lilacino-gilva; assay: Rot jar test of glueline treated Pinus radiata plywood (AWPC 2007); conditions: for EC50(obs): Example 9, glueline rate giving 50% inhibition of weight loss, six rates, regression
Description: as §2
(§6) Efficacy as a glueline fungicide was tested in plywood manufactured with phenol formaldehyde (PF), a typical resin used in engineered wood products. The wood type was Pinus radiata sapwood, which, like many softwoods, is rapidly degraded by decay organisms, if not protected. Five 3.2 mm rotary-peeled veneers were laid up with fungicide-containing PF resin at a typical commercial glue spread rate (250 g/m^2), cold pressed for 10 minutes then hot pressed for 12 minutes at 135° C. and […]. Test specimens (25 mm×25 mm×16 mm) were cut, then leached for 14 days according to EN 84 before conducting a three month “rot jar test” as specified by the Australasian Wood Preservation Committee (Laboratory Decay Test for Hazard Classes H3, H4 and H5, AWPC, 2007). Untreated controls contained no fungicide.
(§7) Plywood was manufactured following the procedure in Example 7 using triadimefon and triadimenol as the glueline fungicides and tested by the rot jar method after leaching.
(§8) In order to examine the interaction between triadimefon and cyproconazole in the glueline a synergy trial was performed using plywood manufactured with fungicide-supplemented PF resin and the rot jar method described above. Six glueline rates (expressed as gai/m^3) of triadimefon alone, cyproconazole alone, triadimefon+cyproconazole (10:1) and triadimefon+cyproconazole (6:1) were used to establish EC50 values by regression analysis. Synergy was determined by the Wadley method as described above using the EC50 values.
(§9) Plywood 29 mm thick was manufactured from seven 4.3 mm rotary peeled Pinus radiata sapwood veneers using PF resin supplemented with various rates of triadimefon plus cyproconazole at a 10:1 ratio. […] The finished plywood was then sprayed with the same mixtures to cover the top and bottom faces of the plywood. Test specimens (25 mm×25 mm×29 mm) were cut, leached and tested by the rot jar method as described in Example 7.

[13] = test system: Antrodia xantha; assay: as above; conditions: for EC50(obs): Example 9, glueline rate giving 50% inhibition of weight loss, six rates, regression; for Percentage weight loss: rot jar after leaching
Description: as §2, §6, §7, §8, §9

[14] = test system: Serpula lacrymans; assay: as above; conditions: for Percentage weight loss: leached, three month rot jar; for EC50(obs): Example 9, glueline rate giving 50% inhibition of weight loss, six rates, regression
Description: as §2, §6, §3

[15] = test system: Tyromyces palustris; assay: as above
Description: as §6
Plywood was manufactured following the procedure in Example 7 using triadimefon and triadimenol as the glueline fungicides and tested by the rot jar method after leaching. […]

[16] = cited from earlier work; remark: listed apart in the source
[17] = 20° C.; cited from earlier work
[18] = cited from earlier work; remark: listed apart in the source
[19] = test system: human and yeast CYP51 (lanosterol-14α-demethylase); conditions: cited from earlier work
[20] = Example 7, glueline 62.5 gai/m3, PF plywood, leached, three month rot jar
[21] = Example 7, glueline 125 gai/m3, PF plywood, leached, three month rot jar
[22] = Example 7, glueline 250 gai/m3, PF plywood, leached, three month rot jar
[23] = Example 7, glueline 500 gai/m3, PF plywood, leached, three month rot jar
[24] = Example 7, glueline 62.5 gai/m3, PF plywood
[25] = Example 7, glueline 125 gai/m3, PF plywood
[26] = Example 7, glueline 250 gai/m3, PF plywood
[27] = Example 7, glueline 500 gai/m3, PF plywood
[28] = Example 8, glueline 250 gai/m3, PF plywood, rot jar after leaching
[29] = Example 8, glueline 500 gai/m3, PF plywood, rot jar after leaching
[30] = Example 8, glueline 1000 gai/m3, PF plywood, rot jar after leaching
[31] = Example 8, glueline 2000 gai/m3, PF plywood, rot jar after leaching
[32] = in words, temperature not given

CC(C1CC1)C(O)(Cn1cncn1)c1ccc(Cl)cc1 (racemic) [Cyproconazole]
EC90(obs) ([1]; Example 4, 5 days at 25° C.): 0.19 ppm | EC90(obs) ([1]; Example 6, 8 days growth): 0.46 ppm | EC90(obs) [2]: 1.93 ppm | EC50(obs) [3]: 345 gai/m^3 | Stability in water ([4]; pH 1): Stable in water 35 d | EC90(obs) [5]: 0.12 ppm | EC90(obs) [6]: 0.30 ppm and 0.19 ppm | EC90(obs) ([7]; Example 5, 4 days growth): 0.17 ppm | EC90(obs) ([7]; Example 6, 6 days growth): 0.14 ppm | EC90(obs) [8]: 0.25 ppm | EC90(obs) ([9]; Example 5, 5 days growth): 1.60 ppm | EC90(obs) ([9]; Example 6, 8 days growth): 1.32 ppm | EC90(obs) [10]: 0.68 ppm | EC90(obs) ([11]; Example 5, 5 days growth): 0.92 ppm | EC90(obs) ([11]; Example 6, 6 days growth): 0.36 ppm | Percentage weight loss [12, 20]: 7.6% | Percentage weight loss [12, 21]: 4.1% | Percentage weight loss [12, 22]: 2.7% | Percentage weight loss [12, 23]: 0.8% | EC50(obs) [12]: 10 gai/m^3 | EC50(obs) [13]: 84 gai/m^3 | Percentage weight loss [14, 24]: 38.0% | Percentage weight loss [14, 25]: 38.0% | Percentage weight loss [14, 26]: 37.9% | Percentage weight loss [14, 27]: 29.6% | EC50(obs) [14]: 465 gai/m^3 | Percentage weight loss [15, 20]: 25.0% | Percentage weight loss [15, 21]: 16.0% | Percentage weight loss [15, 22]: 17.1% | Percentage weight loss [15, 23]: 4.3%

CC(C)(C)C(O)(CCc1ccc(Cl)cc1)Cn1cncn1 (racemic) [Tebuconazole]
Sol. DCM ([16]; 20° C.): >200 g/L (20° C.) | Sol. hexane ([16]; 20° C.): <0.1 g/L (20° C.) | Sol. toluene ([16]; 20° C.): 50-100 g/L (20° C.) | Sol. Water [17]: 36 mg/L (20° C.) | Stability, hydrolysis DT50 ([4]; pH 4-9): DT50 >1 y pH 4-9

CC(C)(C)C(=O)C(Oc1ccc(Cl)cc1)n1cncn1 (racemic) [Triadimefon]
Sol. DCM ([16]; 20° C.): >200 g/L (20° C.) | Sol. hexane ([16]; 20° C.): 6.3 g/L (20° C.) | Sol. toluene ([16]; 20° C.): >200 g/L (20° C.) | EC90(obs) ([1]; Example 4, 5 days at 25° C.): 2.56 ppm | EC90(obs) ([1]; Example 6, 8 days growth): 2.52 ppm | EC90(obs) [2]: 27.4 ppm | EC50(obs) [3]: 2591144 gai/m^3 | Sol. Water [17]: 64 mg/L (20° C.) | Stability, hydrolysis DT50 ([4]; pH 4,7,9): DT50 >1 y pH 4,7,9 | EC90(obs) [5]: 1.48 ppm | EC90(obs) [6]: 1.52 ppm | Kow (log P) [18]: 3.11 | EC90(obs) ([7]; Example 5, 4 days growth): 0.34 ppm | EC90(obs) ([7]; Example 6, 6 days growth): 0.70 ppm | EC90(obs) [8]: 17.2 ppm | EC90(obs) ([9]; Example 5, 5 days growth): 26.4 ppm | EC90(obs) ([9]; Example 6, 8 days growth): 26.3 ppm | EC90(obs) [10]: 4.48 ppm | EC90(obs) ([11]; Example 5, 5 days growth): 0.82 ppm | EC90(obs) ([11]; Example 6, 6 days growth): 1.08 ppm | Percentage weight loss [12, 20]: 17.8% | Percentage weight loss [12, 21]: 16.7% | Percentage weight loss [12, 22]: 10.3% | Percentage weight loss [12, 23]: 8.2% | Percentage weight loss [12, 28]: 19.1% | Percentage weight loss [12, 29]: 13.8% | Percentage weight loss [12, 30]: 5.1% | Percentage weight loss [12, 31]: 3.6% | EC50(obs) [12]: 121 gai/m^3 | Percentage weight loss ([13]; Example 8, glueline 250 gai/m3, PF plywood): 29.4% | Percentage weight loss ([13]; Example 8, glueline 500 gai/m3, PF plywood): 20.3% | Percentage weight loss ([13]; Example 8, glueline 1000 gai/m3, PF plywood): 12.5% | Percentage weight loss ([13]; Example 8, glueline 2000 gai/m3, PF plywood): 6.1% | EC50(obs) [13]: 248 gai/m^3 | Percentage weight loss [14, 24]: 42.4% | Percentage weight loss [14, 25]: 43.8% | Percentage weight loss [14, 26]: 42.2% | Percentage weight loss [14, 27]: 44.9% | EC50(obs) [14]: 14328 gai/m^3 | Percentage weight loss [15, 20]: 28.7% | Percentage weight loss [15, 21]: 29.2% | Percentage weight loss [15, 22]: 16.5% | Percentage weight loss [15, 23]: 7.6% | Percentage weight loss [15, 28]: 14.2% | Percentage weight loss [15, 29]: 10.7% | Percentage weight loss [15, 30]: 2.0% | Percentage weight loss [15, 31]: 0.4%

Propiconazole
relative selectivity for the fungal enzyme (in words) ([19]; based on the IC50 ratio human/yeast): moderately selective | ratio of IC50 values (human/yeast) against CYP51 ([19]; human CYP51 IC50 / yeast (Candida albicans) CYP51 IC50): 55 | Sol. hexane ([16]; 25° C.): 47 g/L (25° C.) | Sol. DCM [16, 32]: Completely misc | Sol. toluene [16, 32]: Completely misc | Sol. Water [17]: 100 mg/L (20°) | Kow (log P) [18]: 3.72
